Reference: PubChem BioAssay (NCI)
Where “and” joins values, the source holds several entries; their conditions need not be identical. Equal entries are not always repeated.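 48-hour exposure; five concentrations; linearly interpolated endpoints. GI50 marks 50% less growth. TGI is the concentration that stops growth completely.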

Legend:
Assay in all cases: inhibition of tumour cell growth, NCI panel, 48 h
OVCAR-3 ovarian = tested on: OVCAR-3 ovarian
NCI-H460 lung = tested on: NCI-H460 lung
SR leukemia = tested on: SR leukemia
DLD-1 colon = tested on: DLD-1 colon
M19-MEL melanoma = tested on: M19-MEL melanoma
MALME-3M melanoma = tested on: MALME-3M melanoma
OVCAR-4 ovarian = tested on: OVCAR-4 ovarian
NCI-H23 lung = tested on: NCI-H23 lung
NCI-H226 lung = tested on: NCI-H226 lung
PC-3 prostate = tested on: PC-3 prostate

SMILES	TGI (OVCAR-3 ovarian)	TGI (NCI-H460 lung)	TGI (SR leukemia) [µM]	TGI (DLD-1 colon) [µM]	TGI (M19-MEL melanoma) [µM]	TGI (MALME-3M melanoma) [µM]	TGI (OVCAR-4 ovarian) [µM]	TGI (NCI-H23 lung)	TGI (NCI-H226 lung)	GI50 (OVCAR-3 ovarian)	GI50 (NCI-H460 lung)	GI50 (PC-3 prostate)	TGI (PC-3 prostate)	GI50 (SR leukemia) [µM]	GI50 (MALME-3M melanoma) [µM]	GI50 (OVCAR-4 ovarian)	GI50 (NCI-H23 lung)	GI50 (NCI-H226 lung)
COc1ccc2c(c1OC)C1=C(C2=O)c2cc3c(cc2CCN1)OCO3	90.7 µM	92.7 µM	55	> 100	> 100	> 100	> 100	> 100 µM	9.58 µM	–	–	–	–	–	–	–	–	–
CN1NC2(CCCCC2)ON=C1c1ccccc1	> 100 µM	> 100 µM	> 100	> 100	–	> 100	> 100	> 100 µM	> 100 µM	–	–	–	–	–	–	–	–	–
C(=N\OCc1ccccc1)/c1ncccc1C1OCCO1	> 100 µM	> 100 µM	> 100	> 100	> 100	> 100	> 100	> 100 µM	–	–	–	–	–	–	–	–	–	–
COc1ccccc1NC(=O)n1nc(N)c2ccccc21	> 100 µM	> 100 µM	> 100	–	–	> 100	> 100	> 100 µM	> 100 µM	> 100 µM	47.6 µM	64.1 µM	> 100 µM	92.4	> 100	> 68.1 µM	> 100 µM	> 74.7 µM
OCCSCc1ccccc1	> 100 µM	> 100 µM	> 100	–	–	> 100	> 100	> 100 µM	> 100 µM	–	–	–	> 100 µM	–	–	–	–	–
Cc1cc(C)c(C[N+](C)(C)C)c(C)c1C	15.3 µM	> 100 µM	> 41.1	–	–	32.2	> 27.1	12.3 µM	11.9 µM	0.638 µM	0.367 µM	0.351 µM	> 67.2 µM	0.821	0.594	0.762 µM	0.395 µM	0.565 µM
O=C(NCCCNc1cc(-c2cn(-c3ccccc3)nc2-c2cccc(O)c2)ccn1)c1ccccc1	21 µM	18.7 µM	5.35	–	–	4.53	77.3	26.6 µM	17.9 µM	3.73 µM	3.61 µM	2.1 µM	15.2 µM	1.68	1.73	3.56 µM	3.04 µM	2.72 µM
CC/C=C\C[C@H](O)C/C=C1/C(=O)C=C[C@@H]1C/C=C\CCCC(=O)N(C)C	1.79 µM	7.4 µM	12.3	–	–	8.81	13.5	5.74 µM	7.84 µM	0.471 µM	2.37 µM	1.78 µM	4.47 µM	0.376	3.05	2.07 µM	2 µM	2.57 µM
Cc1c(C(=O)c2ccccc2C(=O)O)c2ccccc2n1C	> 100 µM	> 100 µM	–	> 100	> 100	> 100	> 100	> 100 µM	> 100 µM	–	–	–	–	–	–	–	–	–
CCOC(=O)C(Cc1c[nH]c2ccc(N(CCCl)CCCl)cc12)(NC(C)=O)C(=O)OCC	65.7 µM and 35.1 µM	17.7 µM and 132 µM	7.14	–	–	28.3	682	31.2 µM and 64.8 µM	41.4 µM and 67.9 µM	23.4 µM and 14.4 µM	1.82 µM and 0.765 µM	3.84 µM and 18.5 µM	48.1 µM and 332 µM	1.86	11.1	53 µM and 47.8 µM	5.99 µM and 9.89 µM	14.1 µM and 19.4 µM
CC(=O)O[C@H]1CC[C@@]2(C)C(=CC[C@H]3C4=CC=C(C(C)=O)[C@@]4(C)CCC32)C1 (some centres undefined)	> 100 µM	> 100 µM	81	> 100	> 100	> 100	> 100	–	71.4 µM	–	–	–	–	–	–	–	–	–
CN1CCCN(C)C1c1cc([N+](=O)[O-])ccc1O	> 100 µM	> 100 µM	59.3	–	–	63.7	> 100	> 100 µM	82.5 µM	–	–	–	72.9 µM	–	–	–	–	–
CN(C)C(N)=NC#N	> 100 µM	> 100 µM	–	> 100	> 100	> 100	> 100	> 100 µM	> 100 µM	–	–	–	–	–	–	–	–	–
CCCCCCCCCCN(CCCCCCCCCC)CC(=O)c1ccc2cc(Br)c3ccccc3c2c1	3.54 µM	3.98 µM	4.19	–	–	3.57	5.16	3.4 µM	3.47 µM	1.98 µM	1.98 µM	2.67 µM	8.95 µM	1.3	1.71	2.38 µM	1.78 µM	1.77 µM
CC(=O)O[C@H]1CC[C@@]2(C)C(=CC[C@H]3[C@@H]4C/C(=C\c5cccc(OCCN6CCOCC6)c5)[C@H](OC(C)=O)[C@@]4(C)CC[C@@H]32)C1	> 100 µM	20.7 µM	18.6	–	–	23.5	> 100	23.8 µM	85.9 µM	44.7 µM	6.39 µM	4.5 µM	16.4 µM	5.47	11.4	8.16 µM	6.97 µM	17.9 µM
O=c1nc(Nc2cccc(Cl)c2)oc2cc(Cl)oc(=O)c12	13.3 µM	39.9 µM	12.4	–	–	18.8	> 100	23.7 µM	73.6 µM	3.48 µM	16.7 µM	10.8 µM	66.5 µM	2.88	4.36	10.9 µM	7.15 µM	17.1 µM
CCC(=O)C(C)C1=Nc2nnc(CCCCCCCc3nnc4n3C(=O)C(C(C)C(=O)CC)=N4)n2C1=O (centres undefined)	> 100 µM	> 100 µM	> 100	–	> 100	> 100	–	> 100 µM	> 100 µM	–	–	–	–	–	–	–	–	–
Cc1ccc(S(=O)(=O)NC(=O)NC23CC4CC(CC(F)(C4)C2)C3)cc1	> 100 µM	> 100 µM	–	> 100	> 100	> 100	–	> 100 µM	–	–	–	–	–	–	–	–	–	–
C1CCN(c2nsc(N3CCCCC3)n2)CC1	–	> 100 µM	> 100	> 100	> 100	> 100	> 100	> 100 µM	> 100 µM	–	–	–	–	–	–	–	–	–
